Source: US7393824B1, “Methods of peptide preparation” (Lytix Biopharma, priority 2000, dated 2008)
Where two headings read alike, the source gives them in different places. Residues, ends and D or L forms follow the SMILES beside them.

Legend:
Type in all cases: cell-based
[1] = tested on: Meth A murine sarcoma cell line
Method: Peptide solutions (0.1 ml) were added and the plates incubated at 37° C. for 30 minutes, 4 hours or 24 hours. The cytotoxicity was measured using the MTT method (Mosmann et al., J. Immunol. (1986) 136, 2348-2357).

[2] = tested on: MRC-5 cells (normal fibroblasts); test: Fibroblast assay (MTT)
Method: The cells were washed with PBS and then trypsinated using 2 ml trypsin (for a 80 cm culture flask). After the cells had detached from the wall, usually after ca 3 min. of incubation, 5 ml medium with FBS were added. The cells were resuspended and counted. The cells were then transferred to a centrifugation tube and spinned at 1500 rpm for 10 min. The supernatant was removed and the cells resuspended to a concentration of 1×10^5 cells/ml. 100 ul cells suspension was transferred to each well in a 96-well microtiter plate and incubated for 25 hours to allow the cells to attach. Following the incubation, the medium containing serum was removed by turning the plate upside down against a piece of tissue. 100 ul medium without serum and L-glutamine (assay medium) was added to each well, and then removed as before. This was done to remove any trace of serum. […] The rest of the assay was done as previously described for methA, except that after the 2 hour incubation following MTT addition, 80 ul medium instead of 130 ul were removed.

human red blood cells = test: Hemolytic assay
Method: The hemolytic activities of the peptides were determined using fresh human red blood cells. 8 ml blood was taken from a healthy person. 4 ml blood was transferred to a polycarbonate tube containing heparin to a final concentration of 10 U/ml, and the remaining 4 ml blood was transferred to a glass tube containing EDTA with final concentration of 15% EDTA. The erythrocytes were isolated from heparin-treated blood by centrifugation in 1500 rpm for 10 min and washed three times with phosphate-buffered saline (PBS) to remove plasma and buffy coat. The cell pellet was resuspended in PBS to make the final volume of 4 ml. The peptide was diluted to a concentration of 2 mg/ml and 0.1 mg/ml. The peptide was further diluted to the concentrations as stated in Table 1. For each tube PBS was added first, then RBCs and peptide solutions. The hematocrit in the blood treated with EDTA was determined after 30 min with Sysmex K-1000, and the resuspended RBCs were diluted into 10% hematocrit. RBCs in PBS (1%) with and without peptides (Table 18) were incubated in a shaker at […] for 1 hour and then centrifuged at 4000 rpm for 5 min. The supernatant were carefully transferred to new polycarbonate tubes and the absorbance of the supernatant was measured at 540 nm. Baseline hemolysis was hemoglobin released in the presence of PBS, and 100% hemolysis was hemoglobin released in the presence of 0.1% Triton X-100.

[3] = tested on: Escherichia coli ATCC 25922; conditions: Table 2
Method: The bacterial strains used were: Escherichia coli ATCC 25922 and Staphylococcus aureus ATCC 25923. All strains were stored at −70° C. The bacteria were grown in 2% Bacto Peptone water (Difco 1807-17-4). All tests were performed with bacteria in mid-logarithmic growth phase. Determination of the minimum inhibitory concentration (MIC) of the peptides for bacterial strains were performed in 1% Bacto Peptone water. A standard microdilution technique with an inoculum of 2×10^6 CFU/ml was used. All assays were performed in triplets. Since the peptides are positively charged and therefore could adhere to the plastic wells, we controlled the actual concentration of the peptides in the solution by HPLC. There was no difference between the concentration of the peptides before or after adding the solution to the plastic wells.

[4] = Table 3, unit inferred, read-out: Meth A IC50
[5] = Table 3, unit inferred, read-out: Fib IC50
[6] = Table 3, unit inferred, read-out: RBC EC50

Molecule | IC50 [1, 4] [µM] | IC50 [2, 5] [µM] | EC50 (human red blood cells; [6]) [µM] | other results
C[C@H](NC(=O)[C@H](C)NC(=O)[C@H](CCCCN)NC(=O)[C@H](CCCCN)NC(=O)[C@H](C)NC(=O)[C@H](Cc1c[nH]c2ccccc12)NC(=O)[C@H](CCCCN)NC(=O)[C@H](Cc1c[nH]c2ccccc12)NC(=O)[C@H](C)NC(=O)[C@H](CCCCN)NC(=O)[C@H](CCCCN)NC(=O)[C@H](C)NC(=O)[C@H](C)NC(=O)[C@@H](N)CCCCN)C(=O)N[C@@H](CCCCN)C(=O)N[C@@H](Cc1c[nH]c2ccccc12)C(=O)N[C@@H](C)C(=O)N[C@@H](CCCCN)C(=O)O [KA 18W7,9,16] (H-KAAKKAWKWAKKAAKWAK-OH; N-terminus and C-terminus assumed) | – | – | – | IC50 ([1]; 4 h): 32 µM; IC50 [2]: > 211 µM; EC50 (human red blood cells; red cells of human): > 422 µM
(KAAKKAA)3 W7,9,16 [KA 32] | 28 | > 422 | > 422 | –
C[C@H](NC(=O)[C@H](C)NC(=O)[C@H](CCCCN)NC(=O)[C@H](CCCCN)NC(=O)[C@H](C)NC(=O)[C@H](C)NC(=O)[C@@H](N)CCCCN)C(=O)N[C@@H](CCCCN)C(=O)N[C@@H](C)C(=O)N[C@@H](C)C(=O)N[C@@H](CCCCN)C(=O)N[C@@H](CCCCN)C(=O)N[C@@H](C)C(=O)N[C@@H](C)C(=O)N[C@@H](CCCCN)C(=O)N[C@@H](Cc1c[nH]c2ccccc12)C(=O)N[C@@H](C)C(=O)N[C@@H](CCCCN)C(=O)O [KA 18W16] (H-KAAKKAAKAAKKAAKWAK-OH; N-terminus and C-terminus assumed) | – | – | – | IC50 ([1]; 4 h): > 234 µM; IC50 [2]: > 234 µM; EC50 (human red blood cells; red cells of human): > 467 µM
C[C@H](NC(=O)[C@H](C)NC(=O)[C@H](CCCCN)NC(=O)[C@H](Cc1c[nH]c2ccccc12)NC(=O)[C@H](C)NC(=O)[C@H](CCCCN)NC(=O)[C@H](CCCCN)NC(=O)[C@H](C)NC(=O)[C@H](C)NC(=O)[C@@H](N)CCCCN)C(=O)N[C@@H](CCCCN)C(=O)N[C@@H](CCCCN)C(=O)N[C@@H](C)C(=O)N[C@@H](C)C(=O)N[C@@H](CCCCN)C(=O)N[C@@H](Cc1c[nH]c2ccccc12)C(=O)N[C@@H](C)C(=O)N[C@@H](CCCCN)C(=O)O [KA W7,16] (H-KAAKKAWKAAKKAAKWAK-OH; N-terminus and C-terminus assumed) | – | – | – | IC50 ([1]; 4 h): > 222 µM; IC50 [2]: > 222 µM; EC50 (human red blood cells; red cells of human): > 444 µM
C[C@H](NC(=O)[C@H](C)NC(=O)[C@H](CCCCN)NC(=O)[C@H](C)NC(=O)[C@H](C)NC(=O)[C@H](CCCCN)NC(=O)[C@H](CCCCN)NC(=O)[C@H](Cc1c[nH]c2ccccc12)NC(=O)[C@H](C)NC(=O)[C@H](CCCCN)NC(=O)[C@H](C)NC(=O)[C@H](C)NC(=O)[C@H](CCCCN)NC(=O)[C@H](CCCCN)NC(=O)[C@H](C)NC(=O)[C@H](C)NC(=O)[C@@H](N)CCCCN)C(=O)N[C@@H](CCCCN)C(=O)O [KA 18W10] (H-KAAKKAAKAWKKAAKAAK-OH; N-terminus and C-terminus assumed) | – | – | – | IC50 ([1]; 4 h): > 234 µM; IC50 [2]: > 234 µM; EC50 (human red blood cells; red cells of human): > 467 µM
C[C@H](NC(=O)[C@H](C)NC(=O)[C@H](CCCCN)NC(=O)[C@H](CCCCN)NC(=O)[C@H](Cc1c[nH]c2ccccc12)NC(=O)[C@H](C)NC(=O)[C@H](CCCCN)NC(=O)[C@H](C)NC(=O)[C@H](Cc1c[nH]c2ccccc12)NC(=O)[C@H](CCCCN)NC(=O)[C@H](CCCCN)NC(=O)[C@H](C)NC(=O)[C@H](C)NC(=O)[C@@H](N)CCCCN)C(=O)N[C@@H](CCCCN)C(=O)N[C@@H](C)C(=O)N[C@@H](Cc1c[nH]c2ccccc12)C(=O)N[C@@H](CCCCN)C(=O)O [KA 18W6,10,17] (H-KAAKKWAKAWKKAAKAWK-OH; N-terminus and C-terminus assumed) | – | – | – | IC50 ([1]; Table 1, KA18 peptides, read-out: IC50 Meth A): ≥ 211 µM; IC50 [2]: > 211 µM; EC50 (human red blood cells; red cells of human): > 422 µM
(KAAKKAA)3 W2,9,16,20 [KA 8] | 4 | 23 | > 402 | –
(KAAKKAA)3 W6,10,17 [KA 31] | 147 | > 422 | > 422 | –
CSCC[C@H](NC(=O)[C@H](CCCNC(=N)N)NC(=O)[C@H](Cc1c[nH]c2ccccc12)NC(=O)[C@H](C)NC(=O)[C@H](Cc1c[nH]c2ccccc12)NC(=O)[C@H](CCCNC(=N)N)NC(=O)[C@H](Cc1ccccc1)NC(=O)[C@H](C)NC(=O)[C@H](CCCCN)NC(=O)[C@H](CCCNC(=N)N)NC(=O)[C@H](Cc1c[nH]c2ccccc12)NC(=O)[C@H](C)NC(=O)[C@@H]1CCCN1)C(=O)N[C@@H](CC(C)C)C(=O)N[C@@H](CCCCN)C(=O)N[C@@H](CCCCN)C(=O)N[C@@H](C)C(=O)N[C@@H](C)C(=O)O [LFB (14-31)m, PAWRKAFRWAWRMLKKAA] (H-PAWRKAFRWAWRMLKKAA-OH) | – | – | – | toxicity to fibroblasts [2]: highly toxic to fibroblasts
CC[C@H](C)[C@H](NC(=O)[C@H](C)NC(=O)[C@H](Cc1c[nH]c2ccccc12)NC(=O)[C@H](CCCNC(=N)N)NC(=O)[C@H](Cc1ccccc1)NC(=O)[C@H](C)NC(=O)[C@H](CCCCN)NC(=O)[C@H](CCCNC(=N)N)NC(=O)[C@H](Cc1c[nH]c2ccccc12)NC(=O)[C@H](C)NC(=O)[C@@H]1CCCN1)C(=O)N[C@@H](CCCNC(=N)N)C(=O)N[C@@H](CCSC)C(=O)N[C@@H](CC(C)C)C(=O)N[C@@H](CCCCN)C(=O)N[C@@H](CCCCN)C(=O)N[C@@H](C)C(=O)N[C@@H](C)C(=O)O [W11→I11] (H-PAWRKAFRWAIRMLKKAA-OH; N-terminus and C-terminus assumed) | – | – | – | IC50 ([1]; 4 h): 6 µM; EC50 (human red blood cells; red cells of human): 63.6 µM; Mic E-coli [3]: ⅖
(KAAKKAA)3 W2,9,16 [KA 5] | 15 | 302 | > 422 | –
(KAAKKAA)3 W9,16 [KA 7] | > 222 | > 444 | > 444 | –
(KAAKKAA)3 W7,9,14,16 [KA 4] | 5 | 30 | > 402 | –
CC[C@H](C)[C@H](NC(=O)[C@H](CCCNC(=N)N)NC(=O)[C@H](Cc1ccccc1)NC(=O)[C@H](C)NC(=O)[C@H](CCCCN)NC(=O)[C@H](CCCNC(=N)N)NC(=O)[C@H](Cc1c[nH]c2ccccc12)NC(=O)[C@H](C)NC(=O)[C@@H]1CCCN1)C(=O)N[C@@H](C)C(=O)N[C@@H](Cc1c[nH]c2ccccc12)C(=O)N[C@@H](CCCNC(=N)N)C(=O)N[C@@H](CCSC)C(=O)N[C@@H](CC(C)C)C(=O)N[C@@H](CCCCN)C(=O)N[C@@H](CCCCN)C(=O)N[C@@H](C)C(=O)N[C@@H](C)C(=O)O [W9→I9] (H-PAWRKAFRIAWRMLKKAA-OH; N-terminus and C-terminus assumed) | – | – | – | EC50 (human red blood cells; red cells of human): 155 µM

The next lines start with results.

IC50 [1, 4] [µM] | Molecule | IC50 [2, 5] [µM] | EC50 (human red blood cells; [6]) [µM] | other results
30 | KKWAKKAWKWAKKAW [KA22, 15-mer] | > 514 | > 514 | –
16 | (KAAKKAA)3 W2,3,20 [KA15] | 246 | > 422 | –
24 | (KAAKKAA)3 Bip9,16 [KA27] | > 429 | > 429 | –
32 | WKWAKKAWKWAKKAA [KA21, 15-mer] | > 530 | > 530 | –
110 | (KAAKKAA)3 W7,10,17 [KA23] | > 422 | > 422 | –
140 | WKWAKKAAKWAWKAA [KA20, 15-mer] | 307 | > 546 | –
19 | (KAAKKAA)3 W2,3,20,21 [KA19] | 374 | > 402 | –
8 | KKAWKWAKKAWKWAKKA [KA18] | 115 | > 451 | –
5 | (OAAOOAA)3 W7,9,14,16 [KA14] | 60 | > 424 | –
29 | (KAAKKAA)3 W7,16,17 [KA24] | > 422 | > 422 | –
37 | (KAAKKAA)3 F2,9,16,20 [KA17] | > 429 | > 429 | –
